# Assays:
# [1] = Metabolic stability in human liver microsomes assessed as clearance at 1 uM in presence of NADPH-regenerating system by LC-MS/MS analysis; format: ADME, Microsome
# [2] = target: T1, Serine-protein kinase ATM (Homo sapiens, UniProt Q13315); assay: Inhibition of ATM (unknown origin) preincubated with compound for 30 mins followed by substrate addition and measured after 2 hrs by HTRF method
# [3] = target: T1, Serine-protein kinase ATM; assay: Inhibition of ATM (unknown origin) assessed as remaining activity at 0.01 uM preincubated with compound for 30 mins followed by substrate addition and measured after 2 hrs by HTRF method relative to control; settings: time 2.5 hrs
# [4] = target: T1, Serine-protein kinase ATM; assay: Inhibition of ATM (unknown origin) assessed as remaining activity at 1 uM preincubated with compound for 30 mins followed by substrate addition and measured after 2 hrs by HTRF method relative to control; settings: time 2.5 hrs
# [5] = test system: HCT-116; assay: Inhibition of colony formation in human HCT-116 cells at 0.01 uM preincubated for 1 hr followed by exposure to 2 Gy gamma irradiation and measured after 1 week by crystal violet staining based […] assay relative to control; format: functional; settings: HCT-116, light or radiation study, time 169 hrs
# [6] = Metabolic stability in human liver microsomes assessed as half life at 1 uM in presence of NADPH-regenerating system by LC-MS/MS analysis; format: ADME, Microsome
# [7] = target: Serine/threonine-protein kinase ATR (Homo sapiens, UniProt Q13535); assay: Inhibition of ATR (unknown origin) assessed as remaining activity at 1 uM in presence of [gamma33P-ATP] by radiometric assay
# T1 sequence (Q13315 whole entry): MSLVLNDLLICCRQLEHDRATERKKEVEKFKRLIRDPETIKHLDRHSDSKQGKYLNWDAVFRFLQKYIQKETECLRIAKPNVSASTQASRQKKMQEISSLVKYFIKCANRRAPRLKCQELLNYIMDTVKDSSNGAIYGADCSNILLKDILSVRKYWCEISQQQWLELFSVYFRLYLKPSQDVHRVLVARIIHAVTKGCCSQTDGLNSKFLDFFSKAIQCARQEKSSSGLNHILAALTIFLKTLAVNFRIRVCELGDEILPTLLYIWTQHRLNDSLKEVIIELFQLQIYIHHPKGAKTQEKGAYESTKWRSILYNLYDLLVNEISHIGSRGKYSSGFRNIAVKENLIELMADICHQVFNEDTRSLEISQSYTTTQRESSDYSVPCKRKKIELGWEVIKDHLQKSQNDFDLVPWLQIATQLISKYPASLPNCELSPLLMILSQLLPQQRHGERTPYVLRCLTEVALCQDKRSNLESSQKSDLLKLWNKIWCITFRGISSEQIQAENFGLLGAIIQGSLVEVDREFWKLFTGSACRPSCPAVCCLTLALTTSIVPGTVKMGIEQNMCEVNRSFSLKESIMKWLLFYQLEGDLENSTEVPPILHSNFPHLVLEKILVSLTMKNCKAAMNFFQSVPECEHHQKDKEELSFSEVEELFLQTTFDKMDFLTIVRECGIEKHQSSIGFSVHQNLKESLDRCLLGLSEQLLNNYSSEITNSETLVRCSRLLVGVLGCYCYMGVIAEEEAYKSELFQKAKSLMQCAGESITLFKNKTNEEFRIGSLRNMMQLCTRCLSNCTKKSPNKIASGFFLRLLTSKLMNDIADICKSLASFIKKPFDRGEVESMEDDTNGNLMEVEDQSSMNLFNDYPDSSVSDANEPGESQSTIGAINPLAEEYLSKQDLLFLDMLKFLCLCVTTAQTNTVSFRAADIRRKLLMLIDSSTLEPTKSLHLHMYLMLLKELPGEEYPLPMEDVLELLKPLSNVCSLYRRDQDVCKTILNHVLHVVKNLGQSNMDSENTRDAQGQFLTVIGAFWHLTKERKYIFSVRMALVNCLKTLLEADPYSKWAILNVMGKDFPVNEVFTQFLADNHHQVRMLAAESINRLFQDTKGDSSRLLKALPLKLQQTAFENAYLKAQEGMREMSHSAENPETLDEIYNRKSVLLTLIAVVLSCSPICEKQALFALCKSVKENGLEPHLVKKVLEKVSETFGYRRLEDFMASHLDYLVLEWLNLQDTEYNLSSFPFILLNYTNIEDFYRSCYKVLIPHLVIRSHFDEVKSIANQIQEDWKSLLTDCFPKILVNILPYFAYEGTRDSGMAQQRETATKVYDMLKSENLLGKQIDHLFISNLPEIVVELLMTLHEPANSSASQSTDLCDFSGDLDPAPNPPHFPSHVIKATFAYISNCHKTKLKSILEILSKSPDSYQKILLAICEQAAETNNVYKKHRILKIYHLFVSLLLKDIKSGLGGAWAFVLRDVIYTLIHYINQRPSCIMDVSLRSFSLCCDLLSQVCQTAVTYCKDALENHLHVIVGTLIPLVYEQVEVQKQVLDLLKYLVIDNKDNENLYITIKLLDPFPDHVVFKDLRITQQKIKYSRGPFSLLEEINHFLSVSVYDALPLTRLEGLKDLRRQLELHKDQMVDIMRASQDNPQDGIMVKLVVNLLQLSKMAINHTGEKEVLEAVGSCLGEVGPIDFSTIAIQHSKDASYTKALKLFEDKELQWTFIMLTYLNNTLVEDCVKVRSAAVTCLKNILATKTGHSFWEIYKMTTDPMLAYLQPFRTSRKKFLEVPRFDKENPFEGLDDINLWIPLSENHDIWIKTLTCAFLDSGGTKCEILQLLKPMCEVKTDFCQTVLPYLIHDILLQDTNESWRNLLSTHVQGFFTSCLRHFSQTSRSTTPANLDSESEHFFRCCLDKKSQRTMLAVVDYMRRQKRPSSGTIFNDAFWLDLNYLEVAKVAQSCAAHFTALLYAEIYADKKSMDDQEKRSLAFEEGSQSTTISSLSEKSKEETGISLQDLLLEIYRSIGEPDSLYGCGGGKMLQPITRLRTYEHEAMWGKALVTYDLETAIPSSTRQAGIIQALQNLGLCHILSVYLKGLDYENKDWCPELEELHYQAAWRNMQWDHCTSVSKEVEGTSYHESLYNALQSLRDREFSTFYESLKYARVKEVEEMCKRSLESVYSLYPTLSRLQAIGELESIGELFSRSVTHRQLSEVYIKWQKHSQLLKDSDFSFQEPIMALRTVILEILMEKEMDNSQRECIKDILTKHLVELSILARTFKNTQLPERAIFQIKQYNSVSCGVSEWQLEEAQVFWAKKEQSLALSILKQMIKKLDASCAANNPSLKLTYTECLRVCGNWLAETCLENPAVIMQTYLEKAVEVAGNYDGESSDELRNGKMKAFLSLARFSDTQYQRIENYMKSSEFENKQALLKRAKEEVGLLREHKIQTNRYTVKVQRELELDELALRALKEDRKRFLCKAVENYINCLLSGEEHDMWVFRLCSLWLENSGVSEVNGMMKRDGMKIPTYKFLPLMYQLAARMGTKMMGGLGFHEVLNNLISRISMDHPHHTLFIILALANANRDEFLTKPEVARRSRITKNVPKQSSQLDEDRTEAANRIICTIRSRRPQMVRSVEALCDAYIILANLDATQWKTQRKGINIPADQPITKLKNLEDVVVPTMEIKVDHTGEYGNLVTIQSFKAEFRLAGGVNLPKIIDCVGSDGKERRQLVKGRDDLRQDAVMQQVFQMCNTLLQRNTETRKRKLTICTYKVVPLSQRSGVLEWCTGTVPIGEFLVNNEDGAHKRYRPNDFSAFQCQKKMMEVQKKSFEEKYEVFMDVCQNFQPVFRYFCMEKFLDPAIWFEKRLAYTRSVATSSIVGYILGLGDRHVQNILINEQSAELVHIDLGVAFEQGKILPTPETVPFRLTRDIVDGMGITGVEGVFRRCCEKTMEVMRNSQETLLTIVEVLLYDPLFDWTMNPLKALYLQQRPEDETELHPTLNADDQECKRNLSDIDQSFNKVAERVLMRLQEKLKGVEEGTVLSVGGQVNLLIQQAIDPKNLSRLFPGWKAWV
smiles,measurement,setting,value
CC(C)NC(=O)N(C)c1cnc2ccc(-c3ccc(OCCCCN(C)C)nc3)cc2n1,CLH,[1],60 mL/min/g
same,IC50,[2],26 nM
same,Activity,[3],66%
same,Activity,[4],-1%
same,inhibition at 0.01 µM,[5],20.2%
same,half-life at 1 µM,[6],35 min
C=CCNC(=O)Nc1cnc2ccc(-c3ccc(OCCCN(C)C)nc3)cc2n1,CLH,[1],151 mL/min/g
same,Activity,[4],-3%
same,Activity,[7],101%
same,half-life at 1 µM,[6],9 min
CC1CCC(NC(=O)N(C)c2cnc3ccc(-c4ccc(OCCCN(C)C)nc4)cc3n2)CC1 (stereo unspecified),CLH,[1],93 mL/min/g
same,IC50,[2],2 nM
same,Activity,[3],8%
same,inhibition at 0.01 µM,[5],76.2%
same,Activity,[7],94%
same,half-life at 1 µM,[6],19 min
CN(C)CCCOc1ccc(-c2ccc3ncc(N(C)C(=O)N[C@]45C[C@@H]6C[C@H](C[C@@H](C6)C4)C5)nc3c2)cn1,CLH,[1],19 mL/min/g
same,IC50,[2],8 nM
same,Activity,[3],37%
same,inhibition at 0.01 µM,[5],-3.67%
same,Activity,[7],101%
same,half-life at 1 µM,[6],73 min
COCCCOc1ccc(-c2ccc3ncc(N(C)C(=O)NC(C)C)nc3c2)cn1,Activity,[3],103%
same,Activity,[4],43%
same,inhibition at 0.01 µM,[5],-24.2%
CC(C)NC(=O)N(C)c1cnc2ccc(-c3ccc(OC4CCN(C)CC4)nc3)cc2n1,Activity,[3],100%
same,Activity,[4],25%
same,inhibition at 0.01 µM,[5],-7.74%
CN(C)CCCOc1ccc(-c2ccc3ncc(N(C)C(=O)NC(C)(C)C)nc3c2)cn1,CLH,[1],100 mL/min/g
same,IC50,[2],13 nM
same,Activity,[3],22%
same,inhibition at 0.01 µM,[5],44.7%
same,Activity,[7],98%
same,half-life at 1 µM,[6],14 min
CC(C)NC(=O)N(C)c1cnc2ccc(-c3ccc(OC4CCC(N(C)C)CC4)nc3)cc2n1 (stereo unspecified),Activity,[3],108%
same,Activity,[4],54%
same,inhibition at 0.01 µM,[5],11.3%
CC(C)NC(=O)N(C)c1cnc2ccc(-c3ccc(OCCN(C)C)nc3)cc2n1,CLH,[1],37 mL/min/g
same,IC50,[2],30 nM
same,Activity,[3],73%
same,Activity,[4],-2%
same,inhibition at 0.01 µM,[5],-0.98%
same,half-life at 1 µM,[6],46 min
Cc1cc(OCCCN2CCCCC2)ncc1-c1ccc2ncc(N(C)C(=O)NC(C)C)nc2c1,Activity,[3],96%
same,Activity,[4],22%
same,inhibition at 0.01 µM,[5],-19.8%
CC(C)NC(=O)N(C)c1cnc2ccc(-c3cnc(OCCCN4CCCCC4)c(C(F)(F)F)c3)cc2n1,Activity,[3],90%
same,Activity,[4],10%
same,inhibition at 0.01 µM,[5],-13.6%
Cc1cc(-c2ccc3ncc(N(C)C(=O)NC(C)C)nc3c2)cnc1OCCCN1CCCCC1,Activity,[3],107%
same,Activity,[4],29%
same,inhibition at 0.01 µM,[5],-28.4%
CC(C)NC(=O)N(C)c1cnc2ccc(-c3ccc(OCCN4CCN(C)CC4)nc3)cc2n1,Activity,[3],97%
same,Activity,[4],22%
same,inhibition at 0.01 µM,[5],22.8%
CC(C)NC(=O)N(C)c1cnc2ccc(-c3ccc(OCCCN4CCCCC4)nc3C#N)cc2n1,CLH,[1],5.1 mL/min/g
same,IC50,[2],16 nM
same,Activity,[3],26%
same,Activity,[4],-4%
same,inhibition at 0.01 µM,[5],14%
same,half-life at 1 µM,[6],277 min
CCCNC(=O)Nc1cnc2ccc(-c3ccc(OCCCN(C)C)nc3)cc2n1,CLH,[1],120 mL/min/g
same,Activity,[4],-4%
same,Activity,[7],99%
same,half-life at 1 µM,[6],12 min
CC(C)NC(=O)N(C)c1cnc2ccc(-c3cnc(OCCCN4CCCCC4)c(F)c3)cc2n1,Activity,[3],94%
same,Activity,[4],6%
same,inhibition at 0.01 µM,[5],-3.96%
CN(C)CCCOc1ccc(-c2ccc3ncc(NC(=O)NC4CCCC4)nc3c2)cn1,CLH,[1],144 mL/min/g
same,Activity,[4],-5%
same,Activity,[7],98%
same,half-life at 1 µM,[6],10 min
CC(C)NC(=O)N(C)c1cnc2ccc(-c3cnc(OCCCN4CCCCC4)cc3F)cc2n1,IC50,[2],5 nM
same,Activity,[3],29%
same,Activity,[4],-3%
same,inhibition at 0.01 µM,[5],27.4%
CC(C)NC(=O)N(C)c1cnc2ccc(-c3ccc(OCCCN4CCCC4=O)nc3)cc2n1,CLH,[1],19 mL/min/g
same,Activity,[3],106%
same,Activity,[4],71%
same,inhibition at 0.01 µM,[5],33.7%
same,half-life at 1 µM,[6],90 min
CC(C)NC(=O)N(C)c1cnc2ccc(-c3ccnc(OCCCN4CCCCC4)c3)cc2n1,Activity,[3],97%
same,Activity,[4],10%
same,inhibition at 0.01 µM,[5],32.2%
COc1ccc(NC(=O)N(C)c2cnc3ccc(-c4ccc(OCCCN(C)C)nc4)cc3n2)cc1,CLH,[1],45 mL/min/g
same,IC50,[2],3 nM
same,Activity,[3],22%
same,inhibition at 0.01 µM,[5],-0.75%
same,Activity,[7],120%
same,half-life at 1 µM,[6],51 min
CC(C)CCCOc1ccc(-c2ccc3ncc(N(C)C(=O)NC(C)C)nc3c2)cn1,Activity,[4],33%
CC(C)NC(=O)N(C)c1cnc2ccc(-c3ccc(OCCC4CCCN4C)nc3)cc2n1 (stereo unspecified),CLH,[1],51 mL/min/g
same,IC50,[2],10 nM
same,Activity,[3],43%
same,Activity,[4],-3%
same,inhibition at 0.01 µM,[5],36.5%
same,half-life at 1 µM,[6],48 min
CC(C)NC(=O)Nc1cnc2ccc(-c3ccc(OCCCN(C)C)nc3)cc2n1,CLH,[1],94 mL/min/g
same,Activity,[4],-4%
same,Activity,[7],98%
same,half-life at 1 µM,[6],15 min
CC(C)NC(=O)N(C)c1cnc2ccc(-c3ccc(OC(C)CN(C)C)nc3)cc2n1 (stereo unspecified),CLH,[1],43 mL/min/g
same,Activity,[3],94%
same,Activity,[4],4%
same,inhibition at 0.01 µM,[5],14.7%
same,half-life at 1 µM,[6],55 min
CC(C)NC(=O)N(C)c1cnc2ccc(-c3ccc(OCCN4CCCC4)nc3)cc2n1,Activity,[3],76%
same,Activity,[4],1%
same,inhibition at 0.01 µM,[5],25%
CN(C)CCCOc1ccc(-c2ccc3ncc(N(C)C(=O)Nc4cccc(C(F)(F)F)c4)nc3c2)cn1,Activity,[3],39%
same,inhibition at 0.01 µM,[5],-11.9%
same,Activity,[7],109%
CC(C)NC(=O)N(C)c1cnc2ccc(-c3ccc(OCCN4CCCCC4)nc3)cc2n1,CLH,[1],47 mL/min/g
same,Activity,[3],86%
same,Activity,[4],4%
same,inhibition at 0.01 µM,[5],24%
same,half-life at 1 µM,[6],38 min
CC(C)NC(=O)N(C)c1cnc2ccc(-c3ccc(OCC4CCCN(C)C4)nc3)cc2n1 (stereo unspecified),CLH,[1],36 mL/min/g
same,IC50,[2],22 nM
same,Activity,[3],43%
same,Activity,[4],0%
same,inhibition at 0.01 µM,[5],-8.09%
same,half-life at 1 µM,[6],55 min
CCNC(=O)N(C)c1cnc2ccc(-c3ccc(OCCCN(C)C)nc3)cc2n1,CLH,[1],127 mL/min/g
same,IC50,[2],6 nM
same,Activity,[3],33%
same,inhibition at 0.01 µM,[5],57.8%
same,Activity,[7],104%
same,half-life at 1 µM,[6],11 min
CN(C)CCCOc1ccc(-c2ccc3ncc(NC(=O)NC(C)(C)C)nc3c2)cn1,CLH,[1],185 mL/min/g
same,Activity,[4],-2%
same,Activity,[7],94%
same,half-life at 1 µM,[6],8 min
CN(C)CCCOc1ccc(-c2ccc3ncc(N(C)C(=O)Nc4ccc(Cl)cc4)nc3c2)cn1,Activity,[3],37%
same,inhibition at 0.01 µM,[5],11.7%
same,Activity,[7],111%
CC(C)NC(=O)N(C)c1cnc2ccc(-c3ccc(OCCN4CCOCC4)nc3)cc2n1,Activity,[3],94%
same,Activity,[4],13%
same,inhibition at 0.01 µM,[5],16.9%
CC(C)NC(=O)N(C)c1cnc2ccc(-c3ccc(OCC4CCN(C)C4)nc3)cc2n1 (stereo unspecified),CLH,[1],40 mL/min/g
same,IC50,[2],31 nM
same,Activity,[3],72%
same,Activity,[4],1%
same,inhibition at 0.01 µM,[5],32.9%
same,half-life at 1 µM,[6],50 min
CCCNC(=O)N(C)c1cnc2ccc(-c3ccc(OCCCN(C)C)nc3)cc2n1,CLH,[1],84 mL/min/g
same,IC50,[2],3 nM
same,Activity,[3],12%
same,inhibition at 0.01 µM,[5],77.4%
same,Activity,[7],102%
same,half-life at 1 µM,[6],16 min

# Reference: ChEMBL document CHEMBL5346961, “Discovery and Evaluation of 3-Quinoxalin Urea Derivatives as Potent, Selective, and Orally Available ATM Inhibitors Combined with Chemotherapy for the Treatment of Cancer via Goal-Oriented Molecule Generation and Virtual Screening” (J Med Chem, 2023)
